Drawing on PubChem BioAssay AID1963831 (Molecular Pharmacology Branch, DTP, NCI, 2024), this text covers IC50 and viability, T/C for four compounds.

One may read the IC50 as the concentration that inhibits the measured activity by half. As usually defined, the viability, T/C is the result in the treated group divided by that in the control group, in per cent.

Each structure is given as a SMILES string.
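Further: spheroids exposed to compounds for seven days.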
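Wherever viability, T/C is given: 100% = DMSO vehicle control viability.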

The first assay relates to 889142-216-R-J1-PDC complex spheroid viability. Nature of the assay: Anticancer human tumor 889142-216-R-J1-PDC patient-derived bladder carcinoma cell line growth inhibition [POLQ]. The settings on record: curve of first compound; second compound 0.0316 µM. The method in brief:
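Complex spheroid viability model combining PDC tumour cells with endothelial (HUVEC) and MSC stromal cells. Novobiocin, ART-558 or RP6685 were tested singly and in combination with standard and investigational anticancer drugs. Each was titrated in half-log steps from near clinical Cmax, or from 10 microM where Cmax was unknown.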
Consider `C=CCn1c(=O)c2cnc(Nc3ccc(N4CCN(C)CC4)cc3)nc2n1-c1cccc(C(C)(C)O)n1` + COC1C(OC(N)=O)C(O)C(Oc2ccc3c(O)c(NC(=O)c4ccc(O)c(CC=C(C)C)c4)c(=O)oc3c2C)OC1(C)C, for which the IC50 was more than 1 µM.

Regarding `CNCc1ccc(-c2[nH]c3cc(F)cc4c3c2CCNC4=O)cc1` + COC1C(OC(N)=O)C(O)C(Oc2ccc3c(O)c(NC(=O)c4ccc(O)c(CC=C(C)C)c4)c(=O)oc3c2C)OC1(C)C, the IC50 is more than 10 µM.

In the case of `Nc1ccn(C2OC(CO)C(O)C2(F)F)c(=O)n1` (configuration not stated) + COC1C(OC(N)=O)C(O)C(Oc2ccc3c(O)c(NC(=O)c4ccc(O)c(CC=C(C)C)c4)c(=O)oc3c2C)OC1(C)C, the IC50 amounted to 0.83 µM.

Consider `O=c1[nH]cc(F)c(=O)[nH]1` + COC1C(OC(N)=O)C(O)C(Oc2ccc3c(O)c(NC(=O)c4ccc(O)c(CC=C(C)C)c4)c(=O)oc3c2C)OC1(C)C, for which the IC50 was more than 10 µM.

The same assay, now with this note: curve of first compound; second compound 0.1 µM.
Take `C=CCn1c(=O)c2cnc(Nc3ccc(N4CCN(C)CC4)cc3)nc2n1-c1cccc(C(C)(C)O)n1` + COC1C(OC(N)=O)C(O)C(Oc2ccc3c(O)c(NC(=O)c4ccc(O)c(CC=C(C)C)c4)c(=O)oc3c2C)OC1(C)C: the IC50 was more than 1 µM.

For `CNCc1ccc(-c2[nH]c3cc(F)cc4c3c2CCNC4=O)cc1` + COC1C(OC(N)=O)C(O)C(Oc2ccc3c(O)c(NC(=O)c4ccc(O)c(CC=C(C)C)c4)c(=O)oc3c2C)OC1(C)C, the IC50 was more than 10 µM.

For `Nc1ccn(C2OC(CO)C(O)C2(F)F)c(=O)n1` (configuration not stated) + COC1C(OC(N)=O)C(O)C(Oc2ccc3c(O)c(NC(=O)c4ccc(O)c(CC=C(C)C)c4)c(=O)oc3c2C)OC1(C)C, the IC50 turned out to be 0.225 µM.

On to `O=c1[nH]cc(F)c(=O)[nH]1` + COC1C(OC(N)=O)C(O)C(Oc2ccc3c(O)c(NC(=O)c4ccc(O)c(CC=C(C)C)c4)c(=O)oc3c2C)OC1(C)C, for which the concentration for half-maximal inhibition (IC50) was more than 10 µM.

Staying with this assay, now noted: curve of first compound; second compound 0.316 µM.
As to `C=CCn1c(=O)c2cnc(Nc3ccc(N4CCN(C)CC4)cc3)nc2n1-c1cccc(C(C)(C)O)n1` + COC1C(OC(N)=O)C(O)C(Oc2ccc3c(O)c(NC(=O)c4ccc(O)c(CC=C(C)C)c4)c(=O)oc3c2C)OC1(C)C, the IC50 was more than 1 µM.

For the compound `CNCc1ccc(-c2[nH]c3cc(F)cc4c3c2CCNC4=O)cc1` + COC1C(OC(N)=O)C(O)C(Oc2ccc3c(O)c(NC(=O)c4ccc(O)c(CC=C(C)C)c4)c(=O)oc3c2C)OC1(C)C, the IC50 was more than 10 µM.

Regarding `Nc1ccn(C2OC(CO)C(O)C2(F)F)c(=O)n1` (configuration not stated) + COC1C(OC(N)=O)C(O)C(Oc2ccc3c(O)c(NC(=O)c4ccc(O)c(CC=C(C)C)c4)c(=O)oc3c2C)OC1(C)C, the IC50 stood at 0.202 µM.

As for `O=c1[nH]cc(F)c(=O)[nH]1` + COC1C(OC(N)=O)C(O)C(Oc2ccc3c(O)c(NC(=O)c4ccc(O)c(CC=C(C)C)c4)c(=O)oc3c2C)OC1(C)C, the IC50 was more than 10 µM.

The same assay, now with this note: curve of first compound; second compound 1 µM.
`C=CCn1c(=O)c2cnc(Nc3ccc(N4CCN(C)CC4)cc3)nc2n1-c1cccc(C(C)(C)O)n1` + COC1C(OC(N)=O)C(O)C(Oc2ccc3c(O)c(NC(=O)c4ccc(O)c(CC=C(C)C)c4)c(=O)oc3c2C)OC1(C)C: the IC50 was more than 1 µM.

On to `CNCc1ccc(-c2[nH]c3cc(F)cc4c3c2CCNC4=O)cc1` + COC1C(OC(N)=O)C(O)C(Oc2ccc3c(O)c(NC(=O)c4ccc(O)c(CC=C(C)C)c4)c(=O)oc3c2C)OC1(C)C, for which the IC50 is more than 10 µM.

For the compound `Nc1ccn(C2OC(CO)C(O)C2(F)F)c(=O)n1` (configuration not stated) + COC1C(OC(N)=O)C(O)C(Oc2ccc3c(O)c(NC(=O)c4ccc(O)c(CC=C(C)C)c4)c(=O)oc3c2C)OC1(C)C, the IC50 was determined as 0.25 µM.

Consider `O=c1[nH]cc(F)c(=O)[nH]1` + COC1C(OC(N)=O)C(O)C(Oc2ccc3c(O)c(NC(=O)c4ccc(O)c(CC=C(C)C)c4)c(=O)oc3c2C)OC1(C)C, for which the IC50 is more than 10 µM.

The same assay, now with this note: curve of first compound; second compound 3.16 µM.
In the case of `C=CCn1c(=O)c2cnc(Nc3ccc(N4CCN(C)CC4)cc3)nc2n1-c1cccc(C(C)(C)O)n1` + COC1C(OC(N)=O)C(O)C(Oc2ccc3c(O)c(NC(=O)c4ccc(O)c(CC=C(C)C)c4)c(=O)oc3c2C)OC1(C)C, the IC50 was more than 1 µM.

Turning to `CNCc1ccc(-c2[nH]c3cc(F)cc4c3c2CCNC4=O)cc1` + COC1C(OC(N)=O)C(O)C(Oc2ccc3c(O)c(NC(=O)c4ccc(O)c(CC=C(C)C)c4)c(=O)oc3c2C)OC1(C)C, the IC50 was more than 10 µM.

For the compound `Nc1ccn(C2OC(CO)C(O)C2(F)F)c(=O)n1` (configuration not stated) + COC1C(OC(N)=O)C(O)C(Oc2ccc3c(O)c(NC(=O)c4ccc(O)c(CC=C(C)C)c4)c(=O)oc3c2C)OC1(C)C, the IC50 worked out at 0.18 µM.

On to `O=c1[nH]cc(F)c(=O)[nH]1` + COC1C(OC(N)=O)C(O)C(Oc2ccc3c(O)c(NC(=O)c4ccc(O)c(CC=C(C)C)c4)c(=O)oc3c2C)OC1(C)C, for which the IC50 was more than 10 µM.

Still in this assay, the particulars now being: curve of first compound; second compound 10 µM.
Consider `C=CCn1c(=O)c2cnc(Nc3ccc(N4CCN(C)CC4)cc3)nc2n1-c1cccc(C(C)(C)O)n1` + COC1C(OC(N)=O)C(O)C(Oc2ccc3c(O)c(NC(=O)c4ccc(O)c(CC=C(C)C)c4)c(=O)oc3c2C)OC1(C)C, for which the IC50 was more than 1 µM.

Consider `CNCc1ccc(-c2[nH]c3cc(F)cc4c3c2CCNC4=O)cc1` + COC1C(OC(N)=O)C(O)C(Oc2ccc3c(O)c(NC(=O)c4ccc(O)c(CC=C(C)C)c4)c(=O)oc3c2C)OC1(C)C, for which the IC50 was more than 10 µM.

In the case of `Nc1ccn(C2OC(CO)C(O)C2(F)F)c(=O)n1` (configuration not stated) + COC1C(OC(N)=O)C(O)C(Oc2ccc3c(O)c(NC(=O)c4ccc(O)c(CC=C(C)C)c4)c(=O)oc3c2C)OC1(C)C, the IC50 turned out to be 0.533 µM.

In the case of `O=c1[nH]cc(F)c(=O)[nH]1` + COC1C(OC(N)=O)C(O)C(Oc2ccc3c(O)c(NC(=O)c4ccc(O)c(CC=C(C)C)c4)c(=O)oc3c2C)OC1(C)C, the IC50 was more than 10 µM.

The same assay, now with this note: second compound 0.0316 µM; first compound 0.00316 µM; stronger effect = lower value.
With `C=CCn1c(=O)c2cnc(Nc3ccc(N4CCN(C)CC4)cc3)nc2n1-c1cccc(C(C)(C)O)n1` + COC1C(OC(N)=O)C(O)C(Oc2ccc3c(O)c(NC(=O)c4ccc(O)c(CC=C(C)C)c4)c(=O)oc3c2C)OC1(C)C, the viability, T/C was 97.1%.

Staying with this assay, now noted: second compound 0.0316 µM; first compound 0.01 µM; stronger effect = lower value.
On to `C=CCn1c(=O)c2cnc(Nc3ccc(N4CCN(C)CC4)cc3)nc2n1-c1cccc(C(C)(C)O)n1` + COC1C(OC(N)=O)C(O)C(Oc2ccc3c(O)c(NC(=O)c4ccc(O)c(CC=C(C)C)c4)c(=O)oc3c2C)OC1(C)C, for which the viability, T/C is 152%.

The same assay, now with this note: second compound 0.0316 µM; first compound 0.0316 µM; stronger effect = lower value.
`C=CCn1c(=O)c2cnc(Nc3ccc(N4CCN(C)CC4)cc3)nc2n1-c1cccc(C(C)(C)O)n1` + COC1C(OC(N)=O)C(O)C(Oc2ccc3c(O)c(NC(=O)c4ccc(O)c(CC=C(C)C)c4)c(=O)oc3c2C)OC1(C)C: the viability, T/C is 86.6%.

As to `CNCc1ccc(-c2[nH]c3cc(F)cc4c3c2CCNC4=O)cc1` + COC1C(OC(N)=O)C(O)C(Oc2ccc3c(O)c(NC(=O)c4ccc(O)c(CC=C(C)C)c4)c(=O)oc3c2C)OC1(C)C, the viability, T/C was 120%.

Regarding `Nc1ccn(C2OC(CO)C(O)C2(F)F)c(=O)n1` (configuration not stated) + COC1C(OC(N)=O)C(O)C(Oc2ccc3c(O)c(NC(=O)c4ccc(O)c(CC=C(C)C)c4)c(=O)oc3c2C)OC1(C)C, the viability, T/C was 60.8%.

Turning to `O=c1[nH]cc(F)c(=O)[nH]1` + COC1C(OC(N)=O)C(O)C(Oc2ccc3c(O)c(NC(=O)c4ccc(O)c(CC=C(C)C)c4)c(=O)oc3c2C)OC1(C)C, the viability, T/C is 98.8%.

The same assay, now with this note: second compound 0.0316 µM; first compound 0.1 µM; stronger effect = lower value.
In the case of `C=CCn1c(=O)c2cnc(Nc3ccc(N4CCN(C)CC4)cc3)nc2n1-c1cccc(C(C)(C)O)n1` + COC1C(OC(N)=O)C(O)C(Oc2ccc3c(O)c(NC(=O)c4ccc(O)c(CC=C(C)C)c4)c(=O)oc3c2C)OC1(C)C, the viability, T/C is 83.1%.

Regarding `CNCc1ccc(-c2[nH]c3cc(F)cc4c3c2CCNC4=O)cc1` + COC1C(OC(N)=O)C(O)C(Oc2ccc3c(O)c(NC(=O)c4ccc(O)c(CC=C(C)C)c4)c(=O)oc3c2C)OC1(C)C, the viability, T/C was 97.3%.

For `Nc1ccn(C2OC(CO)C(O)C2(F)F)c(=O)n1` (configuration not stated) + COC1C(OC(N)=O)C(O)C(Oc2ccc3c(O)c(NC(=O)c4ccc(O)c(CC=C(C)C)c4)c(=O)oc3c2C)OC1(C)C, the viability, T/C is 49.5%.

For `O=c1[nH]cc(F)c(=O)[nH]1` + COC1C(OC(N)=O)C(O)C(Oc2ccc3c(O)c(NC(=O)c4ccc(O)c(CC=C(C)C)c4)c(=O)oc3c2C)OC1(C)C, the viability, T/C was 99.2%.

The same assay, now with this note: second compound 0.0316 µM; first compound 0.316 µM; stronger effect = lower value.
For the compound `C=CCn1c(=O)c2cnc(Nc3ccc(N4CCN(C)CC4)cc3)nc2n1-c1cccc(C(C)(C)O)n1` + COC1C(OC(N)=O)C(O)C(Oc2ccc3c(O)c(NC(=O)c4ccc(O)c(CC=C(C)C)c4)c(=O)oc3c2C)OC1(C)C, the viability, T/C was 66.1%.

As to `CNCc1ccc(-c2[nH]c3cc(F)cc4c3c2CCNC4=O)cc1` + COC1C(OC(N)=O)C(O)C(Oc2ccc3c(O)c(NC(=O)c4ccc(O)c(CC=C(C)C)c4)c(=O)oc3c2C)OC1(C)C, the viability, T/C was 100%.

As for `Nc1ccn(C2OC(CO)C(O)C2(F)F)c(=O)n1` (configuration not stated) + COC1C(OC(N)=O)C(O)C(Oc2ccc3c(O)c(NC(=O)c4ccc(O)c(CC=C(C)C)c4)c(=O)oc3c2C)OC1(C)C, the viability, T/C was 51.2%.

As to `O=c1[nH]cc(F)c(=O)[nH]1` + COC1C(OC(N)=O)C(O)C(Oc2ccc3c(O)c(NC(=O)c4ccc(O)c(CC=C(C)C)c4)c(=O)oc3c2C)OC1(C)C, the viability, T/C is 94.5%.

Staying with this assay, now noted: second compound 0.0316 µM; first compound 1 µM; stronger effect = lower value.
Take `C=CCn1c(=O)c2cnc(Nc3ccc(N4CCN(C)CC4)cc3)nc2n1-c1cccc(C(C)(C)O)n1` + COC1C(OC(N)=O)C(O)C(Oc2ccc3c(O)c(NC(=O)c4ccc(O)c(CC=C(C)C)c4)c(=O)oc3c2C)OC1(C)C: the viability, T/C was 52%.

`CNCc1ccc(-c2[nH]c3cc(F)cc4c3c2CCNC4=O)cc1` + COC1C(OC(N)=O)C(O)C(Oc2ccc3c(O)c(NC(=O)c4ccc(O)c(CC=C(C)C)c4)c(=O)oc3c2C)OC1(C)C: the viability, T/C is 105%.

Regarding `Nc1ccn(C2OC(CO)C(O)C2(F)F)c(=O)n1` (configuration not stated) + COC1C(OC(N)=O)C(O)C(Oc2ccc3c(O)c(NC(=O)c4ccc(O)c(CC=C(C)C)c4)c(=O)oc3c2C)OC1(C)C, the viability, T/C was 49.7%.

Turning to `O=c1[nH]cc(F)c(=O)[nH]1` + COC1C(OC(N)=O)C(O)C(Oc2ccc3c(O)c(NC(=O)c4ccc(O)c(CC=C(C)C)c4)c(=O)oc3c2C)OC1(C)C, the viability, T/C was 75%.
